Assay results reported in ChEMBL document CHEMBL2311515, “Synthesis and evaluation of antibacterial activity of 7-alkyloxy-4,5-dihydro-imidazo[1,2-a]quinoline derivatives” (2013).
In brackets after ≈: the same amount, converted by molar mass.

How the values were obtained:
Assay type in all cases: functional
[1] = tested on: Staphylococcus aureus; test: Antibacterial activity against Staphylococcus aureus ATCC 29213 assessed as growth inhibition after 20 hrs by NCCLS broth microdilution method; conditions: ATCC 29213, 20 h
[2] = tested on: Escherichia coli; test: Antibacterial activity against Escherichia coli ATCC 8739 assessed as growth inhibition after 20 hrs by NCCLS broth microdilution method; conditions: ATCC 8739, 20 h
[3] = tested on: Proteus vulgaris; test: Antibacterial activity against Proteus vulgaris ATCC 35659 assessed as growth inhibition after 20 hrs by NCCLS broth microdilution method; conditions: ATCC 35659, 20 h
[4] = tested on: Pseudomonas aeruginosa; test: Antibacterial activity against Pseudomonas aeruginosa ATCC 27853 assessed as growth inhibition after 20 hrs by NCCLS broth microdilution method; conditions: ATCC 27853, 20 h
[5] = tested on: Salmonella; test: Antibacterial activity against Salmonella ATCC 14028 assessed as growth inhibition after 20 hrs by NCCLS broth microdilution method; conditions: ATCC 14028, 20 h
[6] = tested on: Klebsiella pneumoniae; test: Antibacterial activity against Klebsiella pneumoniae ATCC 10031 assessed as growth inhibition after 20 hrs by NCCLS broth microdilution method; conditions: ATCC 10031, 20 h
[7] = tested on: Pasteurella sp.; test: Antibacterial activity against Pasteurella ATCC 6529 assessed as growth inhibition after 20 hrs by NCCLS broth microdilution method; conditions: ATCC 6529, 20 h
[8] = tested on: Proteus vulgaris; test: Ratio of ciprofloxacin MIC to compound MIC for Proteus vulgaris ATCC 35659
[9] = tested on: Proteus vulgaris; test: Ratio of amoxicillin MIC to compound MIC for Proteus vulgaris ATCC 35659

Structure (SMILES) | MIC [1] [µg/mL] | MIC [2] [µg/mL] | also measured
Brc1ccc(COc2ccc3c(c2)CCc2nccn2-3)cc1 | 50 (≈ 141 µM) | 25 (≈ 70.4 µM) | 
Fc1ccccc1COc1ccc2c(c1)CCc1nccn1-2 | 150 (≈ 510 µM) | 50 (≈ 170 µM) | 
Clc1cccc(COc2ccc3c(c2)CCc2nccn2-3)c1 | 150 (≈ 483 µM) | 50 (≈ 161 µM) | 
Fc1cccc(COc2ccc3c(c2)CCc2nccn2-3)c1 | 150 (≈ 510 µM) | 50 (≈ 170 µM) | 
O=C(O)c1cn(C2CC2)c2cc(N3CCNCC3)c(F)cc2c1=O [CIPROFLOXACIN] |  |  | MIC [3]: 128 µg/mL (≈ 386 µM); MIC [4]: 4 µg/mL (≈ 12.1 µM); MIC [5]: > 128 µg/mL; MIC [6]: 4 µg/mL (≈ 12.1 µM); MIC [7]: 128 µg/mL (≈ 386 µM)
Clc1ccccc1COc1ccc2c(c1)CCc1nccn1-2 | 150 (≈ 483 µM) | 100 (≈ 322 µM) | 
Clc1ccc(COc2ccc3c(c2)CCc2nccn2-3)cc1 | 50 (≈ 161 µM) | 50 (≈ 161 µM) | 
CC1(C)S[C@@H]2[C@H](NC(=O)[C@H](N)c3ccc(O)cc3)C(=O)N2[C@H]1C(=O)O [AMOXICILLIN] | 25 (≈ 68.4 µM) | 150 (≈ 410 µM) | MIC [3]: > 128 µg/mL; MIC [4]: 16 µg/mL (≈ 43.8 µM); MIC [5]: > 128 µg/mL; MIC [6]: > 128 µg/mL; MIC [7]: 16 µg/mL (≈ 43.8 µM)
COc1ccc(COc2ccc3c(c2)CCc2nccn2-3)cc1 | 100 (≈ 326 µM) | 50 (≈ 163 µM) | 
Brc1ccccc1COc1ccc2c(c1)CCc1nccn1-2 | 100 (≈ 282 µM) | 50 (≈ 141 µM) | 
Fc1ccc(COc2ccc3c(c2)CCc2nccn2-3)cc1 | 50 (≈ 170 µM) | 50 (≈ 170 µM) | 
Brc1cccc(COc2ccc3c(c2)CCc2nccn2-3)c1 | 100 (≈ 282 µM) | 50 (≈ 141 µM) | 
c1ccc(COc2ccc3c(c2)CCc2nccn2-3)cc1 | 200 (≈ 724 µM) | 50 (≈ 181 µM) | 

Continued, in another order:

MIC [1] [µg/mL] | MIC [2] [µg/mL] | Structure (SMILES) | also measured
75 (≈ 277 µM) | 16 (≈ 59.2 µM) | CCCCCCOc1ccc2c(c1)CCc1nccn1-2 | 
50 (≈ 172 µM) | 25 (≈ 86.1 µM) | Cc1ccc(COc2ccc3c(c2)CCc2nccn2-3)cc1 | 
50 (≈ 160 µM) | 50 (≈ 160 µM) | CCCCCCCCCOc1ccc2c(c1)CCc1nccn1-2 | 
100 (≈ 390 µM) | 50 (≈ 195 µM) | CCCCCOc1ccc2c(c1)CCc1nccn1-2 | 
50 (≈ 168 µM) | 25 (≈ 83.8 µM) | CCCCCCCCOc1ccc2c(c1)CCc1nccn1-2 | 
150 (≈ 657 µM) | 50 (≈ 219 µM) | CCCOc1ccc2c(c1)CCc1nccn1-2 | 
50 (≈ 176 µM) | 0.5 (≈ 1.76 µM) | CCCCCCCOc1ccc2c(c1)CCc1nccn1-2 | Ratio [8]: 8; MIC [3]: 16 µg/mL (≈ 56.3 µM); MIC [4]: 16 µg/mL (≈ 56.3 µM); MIC [5]: 64 µg/mL (≈ 225 µM); Ratio [9]: 8; MIC [6]: > 128 µg/mL; MIC [7]: 2 µg/mL (≈ 7.03 µM)
100 (≈ 306 µM) | 50 (≈ 153 µM) | CCCCCCCCCCOc1ccc2c(c1)CCc1nccn1-2 | 
150 (≈ 619 µM) | 50 (≈ 206 µM) | CCCCOc1ccc2c(c1)CCc1nccn1-2 | 
